Assay results published in ChEMBL document CHEMBL1201862, “PubChem BioAssay data set” (2004).
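Test compounds were applied to cells in 96-well plates for 48 hours at 5 doses. GI50 = concentration required for 50% inhibition of growth.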 Active and inactive are the calls of the source. Cut-off read from the data, not from the text of the source: active = GI50 up to about 1.1 µM and inactive = higher.

Assays:
Experiment in all cases: NCI tumour cell line growth inhibition, 48 h
[1] = system: UACC-62
[2] = system: RXF 393
[3] = system: K562
[4] = system: COLO 205
[5] = system: UACC-257
[6] = system: HOP-18
[7] = system: SF-268
[8] = system: HT-29
[9] = system: HL-60
[10] = system: OVCAR-4
[11] = system: XF498
[12] = system: M19-MEL
[13] = system: LOX IMVI
[14] = system: OVCAR-3
[15] = system: CCRF-CEM
[16] = system: HOP-62
[17] = system: NCI-H460
[18] = system: HCT-15
[19] = system: SK-OV-3
[20] = system: IGROV-1
[21] = system: MOLT-4
[22] = system: KM12
[23] = system: SF-295
[24] = system: Malme-3M
[25] = system: A549
[26] = system: UO-31
[27] = system: SNB-75
[28] = system: KM-20L2
[29] = system: SN12C
[30] = system: CAKI-1
[31] = system: DMS-273
[32] = system: DMS-114
[33] = system: NCI-H226
[34] = system: SF-539
[35] = system: SNB-19
[36] = system: SK-MEL-5
[37] = system: SW-620
[38] = system: U-251
[39] = system: HCT-116
[40] = system: HCC 2998
[41] = system: SK-MEL-28
[42] = system: NCI/ADR-RES
[43] = system: SNB-78
[44] = system: A498
[45] = system: SK-MEL-2
[46] = system: NCI-H522
[47] = system: OVCAR-5
[48] = system: OVCAR-8
[49] = system: DLD-1
[50] = system: NCI-H23
[51] = system: MCF7
[52] = system: HOP-92
[53] = system: RPMI-8226
[54] = system: EKVX
[55] = system: ACHN
[56] = system: M14
[57] = system: TK-10
[58] = system: 786-0
[59] = system: SR
[60] = system: LXFL 529

Measured: GI50

Cc1nc2ccccc2c(=O)n1Nc1ccc(C(=O)O)cc1
> 100 µM: [18]
inactive: [1] > 100 µM | [2] > 100 µM | [3] > 100 µM | [4] > 100 µM | [5] > 100 µM | [6] > 100 µM | [7] > 100 µM | [8] > 100 µM | [9] > 100 µM | [10] > 100 µM | [11] > 100 µM | [12] > 100 µM | [13] > 100 µM | [14] > 100 µM | [15] > 100 µM | [16] > 100 µM | [17] > 100 µM | [19] > 100 µM | [20] > 100 µM | [21] > 100 µM | [22] > 100 µM | [23] > 100 µM | [24] > 100 µM | [25] > 100 µM | [26] > 100 µM | [27] > 100 µM | [28] > 100 µM | [29] > 100 µM | [30] > 100 µM | [31] > 100 µM | [32] > 100 µM | [33] > 100 µM | [34] > 100 µM | [35] > 100 µM | [36] > 100 µM | [37] > 100 µM | [38] > 100 µM | [39] > 100 µM | [40] > 100 µM | [41] > 100 µM | [42] > 100 µM | [43] > 100 µM | [44] > 100 µM | [45] > 100 µM | [46] > 100 µM | [47] > 100 µM | [48] > 100 µM | [49] > 100 µM | [50] > 100 µM | [51] > 100 µM | [52] > 100 µM | [53] > 100 µM | [54] > 100 µM

Cn1cnc([N+](=O)[O-])c1Sc1nccn1-c1ccccc1
inactive: [1] 35.2 µM | [3] 52.4 µM | [4] 33.9 µM | [5] 37.6 µM | [6] 8.85 µM | [7] 66.5 µM | [8] 61.1 µM | [10] 44.6 µM | [55] 47.6 µM | [11] 31.1 µM | [12] 51.8 µM | [56] 44.9 µM | [13] 16.8 µM | [14] 50.5 µM | [15] 36.3 µM | [16] > 100 µM | [57] > 100 µM | [17] 41.4 µM | [19] > 100 µM | [20] 43.1 µM | [21] 21.5 µM | [22] > 100 µM | [23] > 100 µM | [24] 17.5 µM | [25] > 100 µM | [26] 22.3 µM | [27] 71.9 µM | [28] > 100 µM | [29] 42.3 µM | [30] 97.9 µM | [31] 63.5 µM | [32] 29.4 µM | [58] > 100 µM | [33] 33.7 µM | [34] 68.2 µM | [35] > 100 µM | [36] 69.2 µM | [37] 42.9 µM | [38] 49.8 µM | [39] 38 µM | [40] > 100 µM | [41] 37.8 µM | [43] 26.3 µM | [44] > 100 µM | [45] 21.4 µM | [46] 11.6 µM | [47] > 100 µM | [48] 43.1 µM | [49] 33.3 µM | [59] 21.2 µM | [50] 29.9 µM | [52] 22.5 µM | [53] 51.3 µM | [54] 44.7 µM

NC(=O)c1c[se]c(C2OC(COP(=O)(O)CP(=O)(O)OCC3OC(n4cnc5c(N)ncnc54)C(O)C3O)C(O)C2O)n1 (stereo not given)
inactive: [2] > 100 µM | [3] 15.9 µM | [4] 93.1 µM | [5] > 100 µM | [6] > 100 µM | [7] > 100 µM | [8] 53.2 µM | [9] 28.2 µM | [10] > 100 µM | [55] 64.3 µM | [11] > 100 µM | [12] > 100 µM | [56] 72.8 µM | [14] > 100 µM | [15] 29.1 µM | [16] > 100 µM | [17] 44.8 µM | [19] > 100 µM | [20] 84.3 µM | [21] 35.3 µM | [22] 66.5 µM | [23] 53.3 µM | [24] > 100 µM | [25] 51.3 µM | [26] > 100 µM | [27] > 100 µM | [28] 74.5 µM | [29] > 100 µM | [30] 43.3 µM | [31] 38.6 µM | [32] 97.5 µM | [58] 63.1 µM | [33] > 100 µM | [34] > 100 µM | [35] > 100 µM | [36] > 100 µM | [37] 30.9 µM | [38] 61 µM | [39] 52.1 µM | [41] > 100 µM | [43] > 100 µM | [60] 51.4 µM | [44] > 100 µM | [45] > 100 µM | [46] > 100 µM | [47] > 100 µM | [48] 87.9 µM | [49] 55.5 µM | [59] 35 µM | [50] > 100 µM | [52] > 100 µM | [54] > 100 µM
